# Assay results taken from patent US6403343B2, “Method of producing a taxane-type diterpene and a method of obtaining cultured cells which produce the taxane-type dilterpene at a high rate” (Mitsui Chemicals, Inc., priority 1993, dated 2002).
# System: cultured cells of Taxus baccata LINN
# Experiment: Growth rate and taxane yield, 21-day shake culture of Taxus baccata cells with heavy metal compound, amine, antiethylene agent or Ethrel added
# Type: cell-based
# Procedure: (§1) One gram (fresh weight) of the callus was inoculated to an Erlenmeyer flask containing 20 ml of liquid Woody Plant Medium to which the above-mentioned component was added to give the same concentration and shake culture was carried out with a rotary shaker (amplification of 25 mm, 100 rpm) and the callus was subcultured in every 21 days to accelerate the growth rate thereof.
# Then shake culture was carried out at 25° C. for 21 days.
# After completing the culture, cultured cells of Taxus baccata LINN were harvested by filtration and lyophilized, then the dry weight was measured to obtain the growth rate thereof. Taxane-type diterpenes were extracted from the dried callus with methanol and the like, and they were determined by comparing with standard taxol, cephalomannine, and baccatin III using high performance liquid chromatography to measure the yields of the taxane-type diterpenes.
# as §1
# One gram (fresh weight) of the cultured cells thus obtained was inoculated to an Erlenmeyer flask containing 20 ml of liquid Woody Plant Medium to which the above-mentioned component had been added to give the same concentration, then spermidine was added to it as amine to give the final concentration of 10^−9M-1M. Then shake culture was carried out at 25° C. for 21 days.
# After completing the culture, cultured cells of Taxus baccata LINN were harvested by filtration and lyophilized, then the dry weight was measured to obtain the growth rate thereof. Taxane-type diterpenes were extracted from the dried cells with methanol and the like, and they were determined by comparing with standard taxol, cephalomannine, and baccatin III using high performance liquid chromatography to measure the yields of the taxane-type diterpene.
# One gram (fresh weight) of the callus was inoculated to an Erlenmeyer flask containing 20 ml of liquid Woody Plant Medium to which the above-mentioned component had been added to give the same concentration and shake culture was carried out with a rotary shaker (amplification of 25 mm, 100 rpm) and the callus was subcultured in every 21 days to accelerate the growth rate thereof.
# One gram (fresh weight) of the cultured cells thus obtained was inoculated to an Erlenmeyer flask containing 20 ml of liquid Woody Plant Medium to which the above-mentioned component had been added to give the same concentration, and shake culture was carried out at 25° C. for 14 days.
# [1] = 1 M added on 14th day, 7 more days
# [2] = 10^−1 M added on 14th day, 7 more days
# [3] = 10^−2 M added on 14th day, 7 more days
# [4] = 10^−3 M added on 14th day, 7 more days
# [5] = 10^−4 M added on 14th day, 7 more days
# [6] = 10^−5 M added on 14th day, 7 more days
# [7] = 10^−6 M added on 14th day, 7 more days
# [8] = 10^−7 M added on 14th day, 7 more days
# [9] = 10^−8 M added on 14th day, 7 more days
# [10] = 10^−9 M added on 14th day, 7 more days
# [11] = 10^−1 M added at start, 21 days
# [12] = 10^−2 M added at start, 21 days
# [13] = 10^−3 M added at start, 21 days
# [14] = 10^−4 M added at start, 21 days
# [15] = 10^−5 M added at start, 21 days
# [16] = 10^−6 M added at start, 21 days
# [17] = 10^−7 M added at start, 21 days
# [18] = 10^−8 M added at start, 21 days
# [19] = 10^−9 M added at start, 21 days
smiles,measurement,setting,value
CCCOC(=O)c1cc(O)c(O)c(O)c1 [propyl gallate],growth rate,[1],1.1 times
same,total yield of taxane,[1],0.01 mg/L
same,yield of baccatin III,[1],0.01 mg/L
same,yield of cephalomannine,[1],0 mg/L
same,yield of taxol,[1],0 mg/L
same,growth rate,[2],1.9 times
same,total yield of taxane,[2],1.38 mg/L
same,yield of baccatin III,[2],0.48 mg/L
same,yield of cephalomannine,[2],0.25 mg/L
same,yield of taxol,[2],0.65 mg/L
same,growth rate,[3],2.9 times
same,total yield of taxane,[3],7.03 mg/L
same,yield of baccatin III,[3],0.69 mg/L
same,yield of cephalomannine,[3],2.01 mg/L
same,yield of taxol,[3],4.33 mg/L
same,growth rate,[4],3.2 times
same,total yield of taxane,[4],12.10 mg/L
same,yield of baccatin III,[4],0.84 mg/L
same,yield of cephalomannine,[4],4.30 mg/L
same,yield of taxol,[4],6.96 mg/L
same,growth rate,[5],3.0 times
same,total yield of taxane,[5],12.27 mg/L
same,yield of baccatin III,[5],0.87 mg/L
same,yield of cephalomannine,[5],4.42 mg/L
same,yield of taxol,[5],6.98 mg/L
same,growth rate,[6],3.0 times
same,total yield of taxane,[6],16.13 mg/L
same,yield of baccatin III,[6],2.82 mg/L
same,yield of cephalomannine,[6],5.07 mg/L
same,yield of taxol,[6],8.24 mg/L
same,growth rate,[7],3.1 times
same,total yield of taxane,[7],13.95 mg/L
same,yield of baccatin III,[7],1.91 mg/L
same,yield of cephalomannine,[7],4.38 mg/L
same,yield of taxol,[7],7.66 mg/L
same,growth rate,[8],2.7 times
same,total yield of taxane,[8],2.79 mg/L
same,yield of baccatin III,[8],0.55 mg/L
same,yield of cephalomannine,[8],0.72 mg/L
same,yield of taxol,[8],1.52 mg/L
same,growth rate,[9],2.7 times
same,total yield of taxane,[9],1.74 mg/L
same,yield of baccatin III,[9],0.42 mg/L
same,yield of cephalomannine,[9],0.68 mg/L
same,yield of taxol,[9],0.74 mg/L
same,growth rate,[10],2.7 times
same,total yield of taxane,[10],1.37 mg/L
same,yield of baccatin III,[10],0.41 mg/L
same,yield of cephalomannine,[10],0.59 mg/L
same,yield of taxol,[10],0.37 mg/L
NCCCCN [putrescine],growth rate,"1 M added at start, 21 days",1.0 times
same,total yield of taxane,"1 M added at start, 21 days",0.36 mg/L
same,yield of baccatin III,"1 M added at start, 21 days",0.01 mg/L
same,yield of cephalomannine,"1 M added at start, 21 days",0.22 mg/L
same,yield of taxol,"1 M added at start, 21 days",0.13 mg/L
same,growth rate,[11],1.1 times
same,total yield of taxane,[11],2.74 mg/L
same,yield of baccatin III,[11],0.80 mg/L
same,yield of cephalomannine,[11],0.97 mg/L
same,yield of taxol,[11],0.97 mg/L
same,growth rate,[12],1.8 times
same,total yield of taxane,[12],3.18 mg/L
same,yield of baccatin III,[12],1.13 mg/L
same,yield of cephalomannine,[12],0.99 mg/L
same,yield of taxol,[12],1.06 mg/L
same,growth rate,[13],2.2 times
same,total yield of taxane,[13],6.90 mg/L
same,yield of baccatin III,[13],1.95 mg/L
same,yield of cephalomannine,[13],1.88 mg/L
same,yield of taxol,[13],3.07 mg/L
same,growth rate,[14],2.6 times
same,total yield of taxane,[14],22.65 mg/L
same,yield of baccatin III,[14],6.60 mg/L
same,yield of cephalomannine,[14],5.25 mg/L
same,yield of taxol,[14],10.80 mg/L
same,growth rate,[15],3.1 times
same,total yield of taxane,[15],23.79 mg/L
same,yield of baccatin III,[15],6.98 mg/L
same,yield of cephalomannine,[15],5.37 mg/L
same,yield of taxol,[15],11.44 mg/L
same,growth rate,[16],3.0 times
same,total yield of taxane,[16],19.44 mg/L
same,yield of baccatin III,[16],5.74 mg/L
same,yield of cephalomannine,[16],5.51 mg/L
same,yield of taxol,[16],8.19 mg/L
same,growth rate,[17],2.7 times
same,total yield of taxane,[17],6.88 mg/L
same,yield of baccatin III,[17],1.10 mg/L
same,yield of cephalomannine,[17],2.31 mg/L
same,yield of taxol,[17],3.47 mg/L
same,growth rate,[18],2.8 times
same,total yield of taxane,[18],2.94 mg/L
same,yield of baccatin III,[18],0.40 mg/L
same,yield of cephalomannine,[18],1.02 mg/L
same,yield of taxol,[18],1.52 mg/L
same,growth rate,[19],2.8 times
same,total yield of taxane,[19],1.75 mg/L
same,yield of baccatin III,[19],0.36 mg/L
same,yield of cephalomannine,[19],0.70 mg/L
same,yield of taxol,[19],0.69 mg/L
